Data: patent US20200361895A1, “NOVEL SULFONAMIDE CARBOXAMIDE COMPOUNDS” (Inflazome Limited, priority 2017, published 2020)

Molecular target: NLRP3 (Homo sapiens, UniProt Q96P20)
Experiment: THP-1 cells pyroptosis assay (LPS + nigericin, resazurin readout; THP IC50)
Type: cell-based
Design: Seed THP-1 cells (25,000 cells/well) containing 1.0 μg/ml LPS in 40 μl of RPMI medium; host or cells: THP-1 cells
Experimental: THP-1 cells (ATCC #TIB-202) were grown in RPMI containing L-glutamine (Gibco #11835) supplemented with 1 mM sodium pyruvate (Sigma #S8636) and penicillin (100 units/ml)/streptomycin (0.1 mg/ml) (Sigma #P4333) in 10% Fetal Bovine Serum (FBS) (Sigma #F0804). The cells were routinely passaged and grown to confluency (˜10^6 cells/ml). On the day of the experiment, THP-1 cells were harvested and resuspended into RPMI medium (without FBS). The cells were then counted and viability (>90%) checked by Trypan blue (Sigma #T8154). Appropriate dilutions were made to give a concentration of 625,000 cells/ml. To this diluted cell solution was added LPS (Sigma #L4524) to give a 1 μg/ml Final Assay Concentration (FAC). 40 μl of the final preparation was aliquoted into each well of a 96-well plate. The plate thus prepared was used for compound screening.
The following method step-by-step assay was followed for compound screening. • 1. Seed THP-1 cells (25,000 cells/well) containing 1.0 μg/ml LPS in 40 μl of RPMI medium (without FBS) in 96-well, black walled, clear bottom cell culture plates coated with poly-D-lysine (VWR #734-0317) • 2. Add 5 μcompound (8 points half-log dilution, with 10 μM top dose) or vehicle (DMSO 0.1% FAC) to the appropriate wells • 3. Incubate for 3 hrs at 37° C. and 5% CO2 • 4. Add 5 μnigericin (Sigma #N7143) (FAC 5 μM) to all wells • 5. Incubate for 1 hr at 37° C. and 5% CO2 • 6. At the end of the incubation period, spin plates at 300×g for 3 mins and remove supernatant • 7. Then add 50 μl of resazurin (Sigma #R7017) (FAC 100 μM resazurin in RPMI medium without FBS) and incubate plates for a further 1-2 hrs at 37° C. and 5% CO2 • 8. Plates were read in an Envision reader at Ex 560 nm and Em 590 nm • 9. IC50 data is fitted to a non-linear regression equation (log inhibitor vs response-variable slope 4-parameters)

NLRP3, sequence (Q96P20 whole entry): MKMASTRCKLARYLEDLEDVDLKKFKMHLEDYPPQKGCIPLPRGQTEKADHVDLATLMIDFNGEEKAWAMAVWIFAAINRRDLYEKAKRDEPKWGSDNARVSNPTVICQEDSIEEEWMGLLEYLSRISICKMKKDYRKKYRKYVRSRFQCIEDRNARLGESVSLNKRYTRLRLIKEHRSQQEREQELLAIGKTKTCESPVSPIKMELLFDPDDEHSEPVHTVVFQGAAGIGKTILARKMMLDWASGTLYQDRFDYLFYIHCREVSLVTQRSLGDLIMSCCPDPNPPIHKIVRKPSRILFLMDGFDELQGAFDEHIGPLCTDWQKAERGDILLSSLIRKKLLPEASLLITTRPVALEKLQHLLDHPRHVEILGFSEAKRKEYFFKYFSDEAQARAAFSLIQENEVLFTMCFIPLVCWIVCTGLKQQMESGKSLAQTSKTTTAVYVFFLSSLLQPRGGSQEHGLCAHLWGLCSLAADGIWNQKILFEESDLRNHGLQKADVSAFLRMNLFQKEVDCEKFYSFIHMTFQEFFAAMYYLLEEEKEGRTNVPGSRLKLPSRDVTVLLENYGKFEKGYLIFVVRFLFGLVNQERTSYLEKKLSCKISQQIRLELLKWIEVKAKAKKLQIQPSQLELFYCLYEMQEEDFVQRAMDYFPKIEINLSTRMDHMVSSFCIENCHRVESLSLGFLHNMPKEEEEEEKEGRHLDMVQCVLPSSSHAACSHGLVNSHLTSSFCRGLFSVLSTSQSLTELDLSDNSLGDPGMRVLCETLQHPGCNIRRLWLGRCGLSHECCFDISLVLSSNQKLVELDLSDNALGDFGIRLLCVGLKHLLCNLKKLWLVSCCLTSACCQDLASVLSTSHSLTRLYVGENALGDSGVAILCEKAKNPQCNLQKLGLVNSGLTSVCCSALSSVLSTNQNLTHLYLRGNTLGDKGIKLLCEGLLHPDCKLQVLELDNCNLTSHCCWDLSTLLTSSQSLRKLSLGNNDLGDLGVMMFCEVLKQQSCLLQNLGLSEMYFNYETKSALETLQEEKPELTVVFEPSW

Row | SMILES | IC50
1 | O=C(Nc1c(-c2ccncc2)cc(F)c2c1CCC2)NS(=O)(=O)Cc1ccccc1 [Example 130, N-((7-Fluoro-5-(pyridin-4-yl)-2,3-dihydro-1H-inden-4-yl)carbamoyl)-1-phenylmethanesulfonamide] | ≤ 5000 nM
2 | CC(C)CS(=O)(=O)NC(=O)Nc1c(-c2ccnc(C#N)c2)cc(F)cc1C(C)C [Example 131, N-((2-(2-Cyanopyridin-4-yl)-4-fluoro-6-isopropylphenyl)carbamoyl)-2-methylpropane-1-sulfonamide] | ≤ 10000 nM
3 | CC(C)c1cc(F)cc(-c2ccnc(C#N)c2)c1NC(=O)NS(=O)(=O)CCc1ccccc1 [Example 135, N-((2-(2-Cyanopyridin-4-yl)-4-fluoro-6-isopropylphenyl)carbamoyl)-2-phenylethanesulfonamide] | ≤ 1000 nM
4 | COc1cc(-c2cc(F)cc(C(C)C)c2NC(=O)NS(=O)(=O)CCc2ccccc2)ccn1 [Example 136, N-((4-Fluoro-2-isopropyl-6-(2-methoxypyridin-4-yl)phenyl)carbamoyl)-2-phenylethanesulfonamide] | ≤ 500 nM
5 | CC(C)c1cc(F)cc(-c2ccnc(C#N)c2)c1NC(=O)NS(=O)(=O)C(C)c1ccccc1 (centres unmarked) [Example 139, N-((2-(2-Cyanopyridin-4-yl)-4-fluoro-6-isopropylphenyl)carbamoyl)-1-phenylethanesulfonamide] | ≤ 5000 nM
6 | COc1cc(-c2cc(F)cc(C(C)C)c2NC(=O)NS(=O)(=O)C(C)c2ccccc2)ccn1 (centres unmarked) [Example 140, N-((4-Fluoro-2-isopropyl-6-(2-methoxypyridin-4-yl)phenyl)carbamoyl)-1-phenylethanesulfonamide] | ≤ 5000 nM
7 | CC(c1ccccc1)S(=O)(=O)NC(=O)Nc1c(-c2ccncc2)cc(F)c2c1CCC2 (centres unmarked) [Example 142, N-((7-Fluoro-5-(pyridin-4-yl)-2,3-dihydro-1H-inden-4-yl)carbamoyl)-1-phenylethanesulfonamide] | ≤ 5000 nM
8 | COc1cc(-c2cc3c(cc2NC(=O)NS(=O)(=O)c2ccn(C4CC4)n2)CCC3)ccn1 [Example 144, 1-Cyclopropyl-N-((6-(2-methoxypyridin-4-yl)-2,3-dihydro-1H-inden-5-yl)carbamoyl)-1H-pyrazole-3-sulfonamide] | ≤ 5000 nM
9 | CCN(CC)CCCS(=O)(=O)NC(=O)Nc1c(-c2ccnc(C#N)c2)cc(F)cc1C(C)C [Example 146, N-((2-(2-Cyanopyridin-4-yl)-4-fluoro-6-isopropylphenyl)carbamoyl)-3-(diethylamino)propane-1-sulfonamide] | ≤ 1000 nM
10 | CCN(CC)CCCS(=O)(=O)NC(=O)Nc1c(-c2ccnc(OC)c2)cc(F)cc1C(C)C [Example 147, 3-(Diethylamino)-N-((4-fluoro-2-isopropyl-6-(2-methoxypyridin-4-yl)phenyl)carbamoyl)propane-1-sulfonamide] | ≤ 500 nM
11 | CCN(CCCS(=O)(=O)NC(=O)Nc1c(-c2ccnc(OC)c2)cc(F)cc1C(C)C)Cc1ccccc1 [Example 150, 3-(Benzyl(ethyl)amino)-N-((4-fluoro-2-isopropyl-6-(2-methoxypyridin-4-yl)phenyl)carbamoyl)propane-1-sulfonamide] | ≤ 500 nM
12 | CCN(CCCS(=O)(=O)NC(=O)Nc1c(-c2ccnc(C#N)c2)cc(F)cc1C(C)C)Cc1ccccc1 [Example 151, 3-(Benzyl(ethyl)amino)-N-((2-(2-cyanopyridin-4-yl)-4-fluoro-6-isopropylphenyl)carbamoyl)propane-1-sulfonamide] | ≤ 5000 nM
13 | COCCCS(=O)(=O)NC(=O)Nc1c(-c2ccnc(C#N)c2)cc(F)cc1C(C)C [Example 154, N-((2-(2-Cyanopyridin-4-yl)-4-fluoro-6-isopropylphenyl)carbamoyl)-3-methoxypropane-1-sulfonamide] | ≤ 5000 nM
14 | COCCCS(=O)(=O)NC(=O)Nc1c(-c2ccncc2)cc(F)c2c1CCC2 [Example 157, N-((7-Fluoro-5-(pyridin-4-yl)-2,3-dihydro-1H-inden-4-yl)carbamoyl)-3-methoxypropane-1-sulfonamide] | ≤ 5000 nM
15 | CN1CCC(CS(=O)(=O)NC(=O)Nc2c(-c3ccncc3)cc(F)c3c2CCC3)C1 (centres unmarked) [Example 165, N-((7-Fluoro-5-(pyridin-4-yl)-2,3-dihydro-1H-inden-4-yl)carbamoyl)-1-(1-methylpyrrolidin-3-yl) methanesulfonamide] | ≤ 5000 nM

Now from value to molecule:

Row | IC50 | SMILES
16 | ≤ 1000 nM | COc1cc(-c2cc(F)cc(C(C)C)c2NC(=O)NS(=O)(=O)CC(C)C)ccn1 [Example 132, N-((4-Fluoro-2-isopropyl-6-(2-methoxypyridin-4-yl)phenyl)carbamoyl)-2-methylpropane-1-sulfonamide]
17 | ≤ 500 nM | COc1cc(-c2ccc3c(c2NC(=O)NS(=O)(=O)CC(C)C)CCC3)ccn1 [Example 133, N-((5-(2-Methoxypyridin-4-yl)-2,3-dihydro-1H-inden-4-yl)carbamoyl)-2-methylpropane-1-sulfonamide]
18 | ≤ 1000 nM | CC(C)CS(=O)(=O)NC(=O)Nc1c(-c2ccncc2)cc(F)c2c1CCC2 [Example 134, N-((7-Fluoro-5-(pyridin-4-yl)-2,3-dihydro-1H-inden-4-yl)carbamoyl)-2-methylpropane-1-sulfonamide]
19 | ≤ 500 nM | COc1cc(-c2ccc3c(c2NC(=O)NS(=O)(=O)CCc2ccccc2)CCC3)ccn1 [Example 137, N-((5-(2-Methoxypyridin-4-yl)-2,3-dihydro-1H-inden-4-yl)carbamoyl)-2-phenylethanesulfonamide]
20 | ≤ 1000 nM | COc1cc(-c2ccc3c(c2NC(=O)NS(=O)(=O)C(C)c2ccccc2)CCC3)ccn1 (centres unmarked) [Example 141, N-((5-(2-Methoxypyridin-4-yl)-2,3-dihydro-1H-inden-4-yl)carbamoyl)-1-phenylethanesulfonamide]
21 | ≤ 1000 nM | COc1cc(-c2ccc3c(c2NC(=O)NS(C)(=O)=O)CCC3)ccn1 [Example 143, N-((5-(2-Methoxypyridin-4-yl)-2,3-dihydro-1H-inden-4-yl)carbamoyl)methanesulfonamide]
22 | ≤ 500 nM | CCN(CC)CCCS(=O)(=O)NC(=O)Nc1c(-c2ccnc(OC)c2)ccc2c1CCC2 [Example 148, 3-(Diethylamino)-N-((5-(2-methoxypyridin-4-yl)-2,3-dihydro-1H-inden-4-yl)carbamoyl)propane-1-sulfonamide]
23 | ≤ 500 nM | CCN(CCCS(=O)(=O)NC(=O)Nc1c(-c2ccnc(OC)c2)ccc2c1CCC2)Cc1ccccc1 [Example 152, 3-(Benzyl(ethyl)amino)-N-((5-(2-methoxypyridin-4-yl)-2,3-dihydro-1H-inden-4-yl)carbamoyl)propane-1-sulfonamide]
24 | ≤ 500 nM | COCCCS(=O)(=O)NC(=O)Nc1c(-c2ccnc(OC)c2)cc(F)cc1C(C)C [Example 155, N-((4-Fluoro-2-isopropyl-6-(2-methoxypyridin-4-yl)phenyl)carbamoyl)-3-methoxypropane-1-sulfonamide]
25 | ≤ 500 nM | COCCCS(=O)(=O)NC(=O)Nc1c(-c2ccnc(OC)c2)ccc2c1CCC2 [Example 156, 3-Methoxy-N-((5-(2-methoxypyridin-4-yl)-2,3-dihydro-1H-inden-4-yl)carbamoyl)propane-1-sulfonamide]
26 | ≤ 1000 nM | CCn1nc(S(=O)(=O)NC(=O)Nc2c(-c3cccc(OC)c3)ccc3c2CCC3)cc1CN(C)C [Example 194, 5-((Dimethylamino)methyl)-1-ethyl-N-((5-(3-methoxyphenyl)-2,3-dihydro-1H-inden-4-yl)carbamoyl)-1H-pyrazole-3-sulfonamide]
